This test has as its system MHC-I expression by COLO 205 cells. Nature of the test: cells. The settings on record: for fold induction at 35 µM: Homo sapiens, COLO 205, 48 h, read-out: Induction Fold. The format is cell-based, human. As to the method:
A panel of synthetic cannabinoids (Cayman Chemical, #9002891) was tested for MHC class I-inducing capability in COLO 205 cells as described above. COLO 205 cells were treated with the compounds at a concentration of 35 μM and evaluated for cell surface MHC class I expression after 48 hours. Cells were harvested, stained with MHC-I mAb W6/32 (Thermo Fisher). MHC-I expression was determined by flow cytometry.

Where [1] appears, read: MHC-I expression, COLO 205 cells, compounds at 35 μM, 48 hours, flow cytometry (W6/32).

Counter-ions that a name gives are not always drawn. Like-named read-outs stand apart in the source and are kept apart here.

Consider `COC(=O)[C@@H](NC(=O)c1nn(CCCC(C)F)c2ccccc12)C(C)C` (stereo partly drawn) [Example 268, methyl (1-(4-fluoropentyl)-1H-indazole-3-carbonyl)-1-valinate], for which the “Induction Fold” value is given as 1.55 Fold.
Turning to `CCCCCCCC/C=C\CCCCCCCC(=O)N[C@H](C)CO` [Example 242], the “Induction Fold” value under setting [1] stood at 1.67 Fold.
As for `O=C(c1cccnc1)c1cn(CCCCCF)c2ccccc12` [Example 116, (1-(5-fluoropentyl)-1H-indol-3-yl)(pyridin-3-yl)methanone, monohydrochloride], under setting [1], the fold induction at 35 µM came to 2.34.
On the same count and under the same terms, for `NC(=O)[C@H](Cc1ccccc1)NC(=O)c1nn(CCCCCF)c2ccccc12` [Example 227, (S)-N-(1-amino-1-oxo-3-phenylpropan-2-yl)-1-(5-fluoropentyl)-1H-indazole-3-carboxamide] the value was 1.72.
On the same count and under the same terms, for `CCCCCn1cc(C(=O)c2cc(CC)cc3ccccc23)c2ccccc21` [Example 264, (3-ethyl-1-naphthalenyl)(1-pentyl-1H-indol-3-yl)-methanone] the value was 1.56; for `CCCCCn1cc(C(=O)N[C@H](C(=O)OC)C(C)C)c2ccccc21` [Example 328, N-[(1-pentyl-1H-indol-3-yl)carbonyl]-L-valine, methyl ester], 1.24; for `CCCCCn1nc2ccccc2c1C(=O)Nc1cccc2ccccc12` [Example 294, N-(naphthalen-1-yl)-2-pentyl-2H-indazole-3-carboxamide], 1.43.
On the same count and under the same terms, for `COC(=O)[C@@H](NC(=O)c1nn(Cc2ccc(F)cc2)c2ccccc12)C(C)C` [Example 15, N-[[1-[(4-fluorophenyl)methyl]-1H-indazol-3-yl]carbonyl]-L-valine, methyl ester] the value was 4.2; for `CN1CCCCC(n2cc(C(=O)C3C(C)(C)C3(C)C)c3ccccc32)C1` (stereo not drawn) [Example 305, (1-(1-methylazepan-3-yl)-1H-indol-3-yl)(2,2,3,3-tetramethylcyclopropyl)methanone], 1.38.
`COc1ccc(C(=O)c2cn(CC3CCCCC3)c3ccccc23)c2ccccc12` [Example 253, [1-(cyclohexylmethyl)-1H-indol-3-yl](4-methoxy-1-naphthalenyl)-methanone]: under setting [1], the fold induction at 35 µM was found to be 1.61.
With `CCCCCn1cc(C(=O)c2cccc3c(C)cccc23)c2ccccc21` [Example 191, (5-methylnaphthalen-1-yl)(1-pentyl-1H-indol-3-yl)methanone], the fold induction at 35 µM under setting [1] amounted to 1.89.
Same read-out and setting: for `CC(F)CCCn1cc(C(=O)C2C(C)(C)C2(C)C)c2ccccc21` (stereo not drawn) [Example 235, (1-(4-fluoropentyl)-1H-indol-3-yl)(2,2,3,3-tetramethylcyclopropyl)methanone] the value was 1.7.
`CCCCCn1cc(C(=O)c2ccccc2I)c2ccccc21` [Example 36, (2-iodophenyl)(1-pentyl-1H-indol-3-yl)-methanone]: the fold induction at 35 µM under setting [1] came out at 3.3.
For the molecule `CCCCCCC(C)(C)c1ccc([C@H]2CCC[C@@H](O)C2)c(O)c1` [Example 371, 2[(1S,3R)-3-hydroxycyclohexyl]-5-(2-methyloctan-2-yl)phenol], the fold induction at 35 µM under setting [1] was determined as 0.78.
Still for that read-out and setting: for `O=C(c1cccc2ccccc12)c1cn(CCCCCCF)c2ccccc12` [Example 341, (1-(6-fluorohexyl)-1H-indol-3-yl)(naphthalen-1-yl)methanone] the value was 1.18; for `CCC(Cl)CCn1cc(C(=O)c2cccc3ccccc23)c2ccccc21` (stereo not drawn) [Example 114, (1-(3-chloropentyl)-1H-indol-3-yl)(naphthalen-1-yl)methanone], 2.35.
For the molecule `O=C(NC12CC3CC(CC(C3)C1)C2)c1nn(CCCCCCl)c2ccccc12` [Example 333, N-((3s,5s,7s)-adamantan-1-yl)-1-(5-chloropentyl)-1H-indazole-3-carboxamide], the “Induction Fold” value under setting [1] was found to be 1.21 Fold.
In the case of `CC(Cl)CCCn1cc(C(=O)C2C(C)(C)C2(C)C)c2ccccc21` (stereo not drawn) [Example 113, (1-(4-chloropentyl)-1H-indol-3-yl)(2,2,3,3-tetramethylcyclopropyl)methanone], the fold induction at 35 µM under setting [1] came out at 2.36.
As for `CC(C)(C)n1cc(C(=O)c2cccc3ccccc23)c2ccccc21` [Example 336, (1-(tert-butyl)-1H-indol-3-yl)(naphthalen-1-yl)methanone], the fold induction at 35 µM under setting [1] amounted to 1.2.
On the same count and under the same terms, the figure for `CCCCCn1cc(C(=O)c2cccc3c(CC)cccc23)c2ccccc21` [Example 255, (5-ethyl-1-naphthalenyl)(1-pentyl-1H-indol-3-yl)-methanone] is 1.6.
Take `CCCCCCC(C)(C)C1=CC(=O)C([C@H]2CCC[C@@H](O)C2)=CC1=O` [Example 61, 3′R-hydroxy-4-(2-methyloctan-2-yl)-[1,1′S-bi(cyclohexane)]-3,6-diene-2,5-dione]: the “Induction Fold” value under setting [1] is recorded as 2.85 Fold.
For the molecule `CCCCn1cc(C(=O)c2ccc(OC)cc2)c2ccccc21` [Example 282, (4-methoxyphenyl)(1-butyl-1H-indol-3-yl)-methanone], the fold induction at 35 µM under setting [1] worked out at 1.47.
For the molecule `CCC(F)CCn1nc(C(=O)N[C@H](C(=O)OC)C(C)C)c2ccccc21` (stereo partly drawn) [Example 210, methyl (1-(3-fluoropentyl)-1H-indazole-3-carbonyl)-1-valinate], the “Induction Fold” value was 1.84 Fold.
Turning to `CCCCCn1cc(C(=O)c2cccc3cccc(Br)c23)c2ccccc21` [Example 87, (8-bromonaphthalen-1-yl)(1-pentyl-1H-indol-3-yl)methanone], the fold induction at 35 µM under setting [1] is 2.51.
On the same count and under the same terms, the figure for `CCCCCn1cc(C(=O)Cc2ccc(OC)cc2)c2ccccc21` [Example 59, 2-(4-methoxyphenyl)-1-(1-pentyl-1H-indol-3-yl)-ethanone] is 2.85; for `CCCCCn1cc(C(=O)Oc2cccc3ncccc23)c2ccccc21` [Example 131, quinolin-5-yl 1-pentyl-1H-indole-3-carboxylate] it is 2.26.
With `CCCCCn1cc(C(=O)c2cccc3ccccc23)cc1-c1ccccc1` [Example 77, 1-naphthalenyl(1-pentyl-5-phenyl-1H-pyrrol-3-yl)-methanone], the “Induction Fold” value was 2.60 Fold.
Take `O=C(c1cccc2ccccc12)c1nn(CCCCCBr)c2ccccc12` [Example 97, (1-(5-bromopentyl)-1H-indazol-3-yl)(naphthalen-1-yl)methanone]: the fold induction at 35 µM under setting [1] came to 2.44.
As for `CCC(Cl)CCn1cc(C(=O)C2C(C)(C)C2(C)C)c2ccccc21` (stereo not drawn) [Example 37], the fold induction at 35 µM under setting [1] came to 3.3.
The same measure, in the same setting: for `CCCCCn1cc(C(=O)Oc2cccc3cnccc23)c2ccccc21` [Example 99, isoquinolin-5-yl 1-pentyl-1H-indole-3-carboxylate] the value was 2.43.
With `CCCCCn1cc(C(=O)c2cccc3ccccc23)cc1-c1ccccc1F` [Example 85, [5-(2-fluorophenyl)-1-pentyl-1H-pyrrol-3-yl]-1-naphthalenyl-methanone], the “Induction Fold” value was found to be 2.52 Fold.
Turning to `O=C(Oc1cccc2cccnc12)c1nn(CCCCCF)c2ccccc12` [Example 311, 1-(5-fluoropentyl)-8-quinolinyl ester-1H-indazole-3-carboxylic acid], under setting [1], the “Induction Fold” value is on record as 1.36 Fold.
Turning to `CCCCCn1cc(C(=O)Cc2ccc(C)cc2)c2ccccc21` [Example 181, 2-(4-methylphenyl)-1-(1-pentyl-1H-indol-3-yl)-ethanone], under setting [1], the fold induction at 35 µM was 1.93.

The values are drawn from patent US20210038559A1, “CANNABINOIDS AND DERIVATIVES FOR PROMOTING IMMUNOGENICITY OF TUMOR AND INFECTED CELLS” (priority 2018, published 2021).
